Test results as given in US12606541B2, “PPARg modulators and methods of use” (Eisai R&D Management Co., Ltd., priority 2020, dated 2026).
pIC50: −log10 of the molar value. Where two headings read alike, the source gives them in different places.

How the values were obtained:
[1] = test system: UM-UC-9 engineered cells; assay: Cell proliferation / short-term viability assay, CellTiter-Glo 144 h; type: cell-based, human; settings: read-out: CTGlo 144 h UMUC9.5, G150
Outline: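 UM-UC-9 engineered assay-ready cells seeded at 500 cells/well in high-glucose DMEM/10% FBS, treated from dose-response plates, grown at 37° C, 5% CO2. CellTiter-Glo 2.0 luminescence read on day 7, with a day-0 pretreatment plate as T0 reference and DMSO wells as negative control.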

[2] = target: T1, His6-TEV-PPARγ-(234-505) (Homo sapiens, UniProt P37231); assay: TR-FRET Assay to Measure Co-R Peptide Recruitment to PPARγ; type: biochemical; settings: Co-R peptide (SMRT-ID2) recruitment; top final concentration 20 μM; read-out: TR-FRET i-Ag; AC50
T1 construct: The His6-TEV-PPARγ-(234-505) protein for assay was expressed and purified; TEV cleavage site (N); made in house
T1 sequence (P37231 234-505): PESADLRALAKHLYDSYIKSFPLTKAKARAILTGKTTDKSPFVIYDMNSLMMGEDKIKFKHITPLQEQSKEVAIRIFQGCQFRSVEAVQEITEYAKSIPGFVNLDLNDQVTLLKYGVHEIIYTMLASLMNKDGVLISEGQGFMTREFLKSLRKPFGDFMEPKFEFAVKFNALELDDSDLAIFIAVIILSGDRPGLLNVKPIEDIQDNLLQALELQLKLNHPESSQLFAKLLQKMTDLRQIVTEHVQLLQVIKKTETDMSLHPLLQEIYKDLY
Outline: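 His-tagged PPARγ (or controls) was preincubated with compound for 20 minutes at room temperature, then 5 nM anti-His terbium antibody and 200 nM FITC-labeled SMRT-ID2 corepressor peptide (final) were added for a further hour. TR-FRET signal was normalized to percent response using 500 nM T0070907 and DMSO controls.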

COc1cc(-c2cc(C(=O)N3CC[C@H](C(=O)NC(C)c4cn5c(n4)COCC5)CC34CC4)n[nH]2)c(F)cn1 (single isomer, unassigned) [Example 415-A]
pIC50 [1]: 6.52
AC50 [2]: 88.1 nM

COc1cc(-c2cc(C(=O)N3CC[C@H](C(=O)NC(C)c4cn5c(n4)COCC5)CC34CC4)n[nH]2)c(F)cn1 (single isomer, unassigned) [Example 415-B]
pIC50 [1]: 6.06
AC50 [2]: 283 nM

COc1cc(-c2cc(C(=O)N3CC[C@H](C(=O)NC4CCC(N5CCOCC5)CC4)CC34CC4)n[nH]2)c(F)cn1 (single isomer, unassigned) [Example 418-A]
pIC50 ([1]; Homo sapiens, UM-UC-9, 144 h): 6.82
AC50 [2]: 67.4 nM

COc1cc(-c2cc(C(=O)N3CC[C@H](C(=O)NC4CCC(C)(C)N(C)C4)CC34CC4)n[nH]2)c(F)cn1 (single isomer, unassigned) [Example 424-A]
pIC50 [1]: 5.53
AC50 [2]: 1030 nM

COc1cc(-c2cc(C(=O)N3CC[C@H](C(=O)NC4CCC(C)(C)N(C)C4)CC34CC4)n[nH]2)c(F)cn1 (single isomer, unassigned) [Example 424-B]
pIC50 [1]: 6.03
AC50 [2]: 209 nM

COc1cc(-c2cc(C(=O)N3CC[C@H](C(=O)NC4CCN(CCF)C(C)(C)C4)CC34CC4)n[nH]2)c(F)cn1 (single isomer, unassigned) [Example 425-A]
pIC50 [1]: < 5.00
AC50 [2]: 2510 nM

COc1cc(-c2cc(C(=O)N3CC[C@H](C(=O)NC4CCN(CCF)C(C)(C)C4)CC34CC4)n[nH]2)c(F)cn1 (single isomer, unassigned) [Example 425-B]
pIC50 [1]: < 5.00
AC50 [2]: 917 nM

COc1cc(-c2cc(C(=O)N3CC[C@H](C(=O)NC4CN(C5CCOC5)C4)CC34CC4)n[nH]2)c(F)cn1 (single isomer, unassigned) [Example 433-A]
pIC50 [1]: 6.46
AC50 [2]: 126 nM

COc1cc(-c2cc(C(=O)N3CC[C@H](C(=O)NC4CN(C5CCOC5)C4)CC34CC4)n[nH]2)c(F)cn1 (single isomer, unassigned) [Example 433-B]
pIC50 [1]: 6.60
AC50 [2]: 61.1 nM

COc1cc(-c2cc(C(=O)N3CC[C@H](C(=O)Nc4cnn5ccc(C(C)O)nc45)CC34CC4)n[nH]2)c(F)cn1 (single isomer, unassigned) [Example 445-A]
pIC50 [1]: 7.81
AC50 [2]: 0.6 nM

COc1cc(-c2cc(C(=O)N3CC[C@H](C(=O)Nc4cnn5ccc(C(C)O)nc45)CC34CC4)n[nH]2)c(F)cn1 (single isomer, unassigned) [Example 445-B]
pIC50 [1]: 6.94
AC50 [2]: 11 nM

COc1cc(-c2cc(C(=O)N3CC[C@H](C(=O)NC4CCN(c5ccnc6[nH]ncc56)C4)CC34CC4)n[nH]2)c(F)cn1 (single isomer, unassigned) [Example 450-A]
pIC50 [1]: 6.79
AC50 [2]: 3.3 nM

COc1cc(-c2cc(C(=O)N3CC[C@H](C(=O)NC4CCN(c5ccnc6[nH]ncc56)C4)CC34CC4)n[nH]2)c(F)cn1 (single isomer, unassigned) [Example 450-B]
pIC50 [1]: 6.08
AC50 [2]: 6.8 nM

COc1cc(-c2cc(C(=O)N3CC[C@H](C(=O)NC4CCN(c5cnnc(C)c5)C4)CC34CC4)n[nH]2)c(F)cn1 (single isomer, unassigned) [Example 452-A]
pIC50 [1]: 5.70
AC50 [2]: 8.7 nM

COc1cc(-c2cc(C(=O)N3CC[C@H](C(=O)NC4CCN(c5cnnc(C)c5)C4)CC34CC4)n[nH]2)c(F)cn1 (single isomer, unassigned) [Example 452-B]
pIC50 [1]: < 5.00
AC50 [2]: 142 nM

COc1cc(-c2cc(C(=O)N3CC[C@H](C(=O)NC4CCN(c5cnc(C)nc5)C4)CC34CC4)n[nH]2)c(F)cn1 (single isomer, unassigned) [Example 453-A]
pIC50 [1]: 7.83
AC50 [2]: 6 nM

COc1cc(-c2cc(C(=O)N3CC[C@H](C(=O)NC4CCN(c5cnc(C)nc5)C4)CC34CC4)n[nH]2)c(F)cn1 (single isomer, unassigned) [Example 453-B]
pIC50 [1]: 6.40
AC50 [2]: 8.2 nM

COc1cc(-c2cc(C(=O)N3CC[C@H](C(=O)NC4CCN(CC5(O)COC5)C4)CC34CC4)n[nH]2)c(F)cn1 (single isomer, unassigned) [Example 454-A]
pIC50 [1]: 5.75
AC50 [2]: 88.7 nM

COc1cc(-c2cc(C(=O)N3CC[C@H](C(=O)NC4CCN(CC5(O)COC5)C4)CC34CC4)n[nH]2)c(F)cn1 (single isomer, unassigned) [Example 454-B]
pIC50 [1]: 5.73
AC50 [2]: 100 nM

COc1cc(-c2cc(C(=O)N3CC[C@H](C(=O)NC4CCN(CC(F)(F)CO)C4)CC34CC4)n[nH]2)c(F)cn1 (single isomer, unassigned) [Example 459-A]
pIC50 [1]: 6.56
AC50 [2]: 8 nM

COc1cc(-c2cc(C(=O)N3CC[C@H](C(=O)NC4CCN(CC(F)(F)CO)C4)CC34CC4)n[nH]2)c(F)cn1 (single isomer, unassigned) [Example 459-B]
pIC50 [1]: 7.08
AC50 [2]: 13.1 nM

COc1cc(-c2cc(C(=O)N3CC[C@H](C(=O)NC4CCN(C5COC56CNC6)C4)CC34CC4)n[nH]2)c(F)cn1 (single isomer, unassigned) [Example 461-A]
pIC50 [1]: < 5.00
AC50 [2]: 272 nM

COc1cc(-c2cc(C(=O)N3CC[C@H](C(=O)NC4CCN(C5COC56CNC6)C4)CC34CC4)n[nH]2)c(F)cn1 (single isomer, unassigned) [Example 461-B]
pIC50 [1]: < 5.00
AC50 [2]: 324 nM

COc1cc(-c2cc(C(=O)N3CC[C@H](C(=O)NC4CCN(C5COC56CNC6)C4)CC34CC4)n[nH]2)c(F)cn1 (single isomer, unassigned) [Example 461-C]
pIC50 [1]: < 5.00
AC50 [2]: 375 nM

COc1cc(-c2cc(C(=O)N3CC[C@H](C(=O)NC4CCN(C5COC56CNC6)C4)CC34CC4)n[nH]2)c(F)cn1 (single isomer, unassigned) [Example 461-D]
pIC50 [1]: < 5.00
AC50 [2]: 388 nM

COc1cc(-c2cc(C(=O)N3CC[C@H](C(=O)NCc4ncc(N5CC6CC5CN6)cc4Cl)CC34CC4)n[nH]2)c(F)cn1 (single isomer, unassigned) [Example 462-A]
pIC50 [1]: 6.26
AC50 [2]: 22.5 nM

COc1cc(-c2cc(C(=O)N3CC[C@H](C(=O)NCc4ncc(N5CC6CC5CN6)cc4Cl)CC34CC4)n[nH]2)c(F)cn1 (single isomer, unassigned) [Example 462-B]
pIC50 [1]: 6.24
AC50 [2]: 14.4 nM

COc1cc(-c2cc(C(=O)N3CC[C@H](C(=O)NC4CCN(C5COC56CCC6)C4)CC34CC4)n[nH]2)c(F)cn1 (single isomer, unassigned) [Example 464-D]
pIC50 ([1]; Homo sapiens, UM-UC-9, 144 h): 7.60
AC50 [2]: 7.6 nM

COc1cc(-c2cc(C(=O)N3CC[C@H](C(=O)NCc4ncc(N5CC6CC5CN6)cn4)CC34CC4)n[nH]2)c(F)cn1 (single isomer, unassigned) [Example 467-A]
pIC50 [1]: < 5.00
AC50 [2]: 327 nM

COc1cc(-c2cc(C(=O)N3CC[C@H](C(=O)NCc4ncc(N5CC6CC5CN6)cn4)CC34CC4)n[nH]2)c(F)cn1 (single isomer, unassigned) [Example 467-B]
pIC50 [1]: < 5.00
AC50 [2]: 644 nM

COc1cc(-c2cc(C(=O)N3CC[C@H](C(=O)NC4CCC(O)(C(F)(F)F)C(O)C4)CC34CC4)n[nH]2)c(F)cn1 (single isomer, unassigned) [Example 474-C]
pIC50 ([1]; Homo sapiens, UM-UC-9, 144 h): 7.63
AC50 [2]: 5.4 nM

COc1cc(-c2cc(C(=O)N3CC[C@H](C(=O)NC4CCC(O)(C(F)(F)F)C(O)C4)CC34CC4)n[nH]2)c(F)cn1 (single isomer, unassigned) [Example 474-D]
pIC50 [1]: 5.69
AC50 [2]: 331 nM
